Columns and labels:
[1] = system: E. coli J3272 Tet sens.; assay: MIC, agar dilution (Table IA); type: cell-based; details: unit assumed
[2] = system: E. coli UBMS 90-4 (tetM); assay: MIC, agar dilution; type: cell-based; details: E. coli UBMS 90-4 TetM; Table IA; unit assumed
[3] = system: Ps. acruginosa ATCC 27853; assay: MIC, agar dilution (Table IA); type: cell-based; details: unit assumed
[4] = system: S. aureus UBMS 90-1 (tetM); assay: MIC, agar dilution; type: cell-based; details: S. aureus UBMS 90-1 TetM; Table IA; unit assumed
[5] = system: E. coli PRP1 TetA; assay: MIC, agar dilution (Table IA); type: cell-based; details: unit assumed
[6] = system: E. coli J2175; assay: MIC, agar dilution (Table IA); type: cell-based; details: unit assumed
[7] = system: E. coli UBMS 88-1 (tetB); assay: MIC, agar dilution; type: cell-based; details: E. coli UBMS 88-1 TetB; Table IA; unit assumed
[8] = system: S. aureus IVES 1983 (meth. resistant); assay: MIC, agar dilution; type: cell-based; details: S. aureus IVES 1983; Table IA; unit assumed
[9] = system: S. aureus ATCC 29213 (Sensitive); assay: MIC, agar dilution; type: cell-based; details: S. aureus ATCC 29213; Table IA; unit assumed
[10] = system: S. aureus SMITH (sens); assay: In vivo antibacterial evaluation, acute lethal infection in mice; details: Intraveneous
[11] = system: S. aureus ROSE (MP); assay: MIC, agar dilution (Table IA); type: cell-based; details: unit assumed
[12] = system: S. haemolyticus AVAH 88-3; assay: MIC, agar dilution; type: cell-based; details: S. hemolyticus AVHAH 88-3; Table IA; unit assumed
[13] = system: S. aureus UBMS 88-4 (Sensitive); assay: MIC, agar dilution; type: cell-based; details: S. aureus UBMS 88-4; Table IA; unit assumed
[14] = system: E. coli ATCC 25922; assay: MIC, agar dilution; type: cell-based; details: E. coli ATCC 25922; Table IA; unit assumed
[15] = system: E. coli UBMS 89-1 (tetM); assay: MIC, agar dilution; type: cell-based; details: E. coli UBMS 89-1 TetM; Table IA; unit assumed
[16] = system: E. coli UBMS 90-5; assay: MIC, agar dilution (Table IA); type: cell-based; details: unit assumed
[17] = system: X. maltophilia NEMC 87210; assay: MIC, agar dilution (Table IA); type: cell-based; details: unit assumed
[18] = system: S. aureus Smith (Sensitive); assay: MIC, agar dilution; type: cell-based; details: S. aureus SMITH (MP); Table IA; unit assumed
[19] = system: E. coli #311 (MP); assay: MIC, agar dilution (Table IA); type: cell-based; details: unit assumed
[20] = system: E. coli J3272 TetD; assay: MIC, agar dilution (Table IA); type: cell-based; details: unit assumed
[21] = system: E. coli BAJ9003; assay: MIC, agar dilution (Table IA); type: cell-based; details: unit assumed
[22] = system: E. faecalis ATCC 29212; assay: MIC, agar dilution; type: cell-based; details: E. faecalis ATCC 29212; Table IA; unit assumed
[23] = system: S. aureus UBMS 90-3 (Sensitive); assay: MIC, agar dilution; type: cell-based; details: S. aureus UBMS 90-3; Table IA; unit assumed
[24] = system: S. aureus SMITH (sens); assay: In vivo antibacterial evaluation, acute lethal infection in mice; details: Oral
Source text: In Vivo Antibacterial Evaluation (Table VII)

[25] = system: E. coli MC4100 TetB; assay: MIC, agar dilution (Table IA); type: cell-based; details: unit assumed
[26] = system: S. aureus UBMS 90-2 (tetM); assay: MIC, agar dilution; type: cell-based; details: S. aureus UBMS 90-2 TetM; Table IA; unit assumed
[27] = system: S. aureus IVES 2943 (meth. resistant); assay: MIC, agar dilution; type: cell-based; details: S. aureus IVES 2943; Table IA; unit assumed
[28] = system: E. coli UBMS 89-2 (Sensitive); assay: MIC, agar dilution; type: cell-based; details: E. coli UBMS 89-2 Tet Sens.; Table IA; unit assumed
[29] = system: E. faecalis 12201; assay: MIC, agar dilution; type: cell-based; details: Enterococcus 12201; Table IA; unit assumed
[30] = system: S. aureus UBMS 88-7 (tetK); assay: MIC, agar dilution; type: cell-based; details: S. aureus UBMS 88-7 TetK; Table IA; unit assumed
[31] = system: S. aureus UBMS 88-5 (tetM); assay: MIC, agar dilution; type: cell-based; details: S. aureus UBMS 88-5 TetM; Table IA; unit assumed
[32] = system: S. aureus NEMC 8769/89-4; assay: MIC, agar dilution (Table IA); type: cell-based; details: unit assumed
[33] = system: E. coli J3272 TetC; assay: MIC, agar dilution (Table IA); type: cell-based; details: unit assumed
[34] = system: S. mariescens FDOR 8733; assay: MIC, agar dilution (Table IA); type: cell-based; details: unit assumed

| SMILES | Antibacterial activity (MIC) [1] | Antibacterial activity (MIC) [2] | Antibacterial activity (MIC) [3] | Antibacterial activity (MIC) [4] | Antibacterial activity (MIC) [5] | Antibacterial activity (MIC) [6] | Antibacterial activity (MIC) [7] | Antibacterial activity (MIC) [8] | Antibacterial activity (MIC) [9] | ED50 [10] | Antibacterial activity (MIC) [11] | Antibacterial activity (MIC) [12] | Antibacterial activity (MIC) [13] | Antibacterial activity (MIC) [14] | Antibacterial activity (MIC) [15] | Antibacterial activity (MIC) [16] | Antibacterial activity (MIC) [17] | Antibacterial activity (MIC) [18] | Antibacterial activity (MIC) [19] | Antibacterial activity (MIC) [20] | also measured |
| --- | --- | --- | --- | --- | --- | --- | --- | --- | --- | --- | --- | --- | --- | --- | --- | --- | --- | --- | --- | --- | --- |
| CC(C)CNCC(=O)Nc1cc(N(C)C)c2c(c1O)C(=O)C1=C(O)C3(O)C(=O)C(C(N)=O)=C(O)C(N(C)C)C3CC1C2.Cl.Cl (stereo not drawn) [TT, [4S-(4alpha,12aalpha)]-4,7-Bis(dimethylamino)-1,4,4a,5,5a,6,11,12a-octahydro-3,10,12,12a-tetrahydroxy-9-[[[(2-methylpropyl)amino]acetyl]amino)-1,11-dioxo-2-naphthacenecarboxamide dihydrochloride] | 0.5 µg/mL | 0.5 µg/mL | 16 µg/mL | 0.25 µg/mL | 2 µg/mL | 0.5 µg/mL | 0.5 µg/mL | 2 µg/mL | 0.25 µg/mL | 1 to 2 mg/kg | 2 µg/mL | 0.5 µg/mL | 0.25 µg/mL | 0.5 µg/mL | 0.25 µg/mL | 0.5 µg/mL | 0.5 µg/mL | 0.12 µg/mL | 0.5 µg/mL | 0.12 µg/mL | Antibacterial activity (MIC) [21]: 0.06 µg/mL; Antibacterial activity (MIC) [22]: 0.25 µg/mL; Antibacterial activity (MIC) [23]: 0.12 µg/mL; ED50 [24]: 8 to 16 mg/kg; Antibacterial activity (MIC) [25]: 0.5 µg/mL; Antibacterial activity (MIC) [26]: 0.25 µg/mL; Antibacterial activity (MIC) [27]: 2 µg/mL; Antibacterial activity (MIC) [28]: 0.5 µg/mL; Antibacterial activity (MIC) [29]: 0.25 µg/mL; Antibacterial activity (MIC) [30]: 2 µg/mL; Antibacterial activity (MIC) [31]: 0.25 µg/mL; Antibacterial activity (MIC) [32]: 0.03 µg/mL; Antibacterial activity (MIC) [33]: 0.5 µg/mL; Antibacterial activity (MIC) [34]: 4 µg/mL |
| CCCCNCC(=O)Nc1cc(N(C)C)c2c(c1O)C(=O)C1=C(O)C3(O)C(=O)C(C(N)=O)=C(O)C(N(C)C)C3CC1C2.Cl.Cl (stereo not drawn) [PP, [4S-(4alpha,12aalpha)]-4,7-Bis(dimethylamino)-9-[[(butylamino)acetyl]amino)-1,4,4a,5,5a,6,11,12a-octahydro-3,10,12,12a-tetrahydroxy-1,11-dioxo-2-naphthacenecarboxamide dihydrochloride] | 0.5 µg/mL | 0.25 µg/mL | 16 µg/mL | 0.5 µg/mL | 1 µg/mL | 0.25 µg/mL | 0.5 µg/mL | 2 µg/mL | 0.25 µg/mL | 1 to 2 mg/kg | 2 µg/mL | 0.25 µg/mL | 0.25 µg/mL | 0.25 µg/mL | 0.25 µg/mL | 0.5 µg/mL | 0.5 µg/mL | 0.12 µg/mL | 0.25 µg/mL | 0.25 µg/mL | Antibacterial activity (MIC) [21]: 0.12 µg/mL; Antibacterial activity (MIC) [22]: 0.12 µg/mL; Antibacterial activity (MIC) [23]: 0.25 µg/mL; ED50 [24]: >16 mg/kg; Antibacterial activity (MIC) [25]: 0.5 µg/mL; Antibacterial activity (MIC) [26]: 0.5 µg/mL; Antibacterial activity (MIC) [27]: 2 µg/mL; Antibacterial activity (MIC) [28]: 0.5 µg/mL; Antibacterial activity (MIC) [29]: 0.12 µg/mL; Antibacterial activity (MIC) [30]: 2 µg/mL; Antibacterial activity (MIC) [31]: 0.5 µg/mL; Antibacterial activity (MIC) [32]: 0.12 µg/mL; Antibacterial activity (MIC) [33]: 0.5 µg/mL; Antibacterial activity (MIC) [34]: 2 µg/mL |
| CNC(C)C(=O)Nc1cc(N(C)C)c2c(c1O)C(=O)C1=C(O)[C@]3(O)C(=O)C(C(N)=O)=C(O)[C@@H](N(C)C)C3CC1C2.Cl.Cl (stereo partly drawn) [YY, [4S-(4alpha,12aalpha))-4,7-Bis(dimethylamino)-1,4,4a,5,5a,6,11,12a-octahydro-3,10,12,12a-tetrahydroxy-9-[[2-(methylamino)-1-oxopropyl]amino]-1,11-dioxo-2-naphthacenecarboxamide dihydrochloride] | 0.5 µg/mL | 0.5 µg/mL | 16 µg/mL | 0.25 µg/mL | 2 µg/mL | 0.5 µg/mL | 0.5 µg/mL | 4 µg/mL | 0.5 µg/mL | 0.5 to 1 mg/kg | 8 µg/mL | 0.5 µg/mL | 0.5 µg/mL | 0.5 µg/mL | 0.5 µg/mL | 0.5 µg/mL | 4 µg/mL | 0.25 µg/mL | 0.5 µg/mL | 0.25 µg/mL | Antibacterial activity (MIC) [21]: 0.06 µg/mL; Antibacterial activity (MIC) [22]: 0.12 µg/mL; Antibacterial activity (MIC) [23]: 0.12 µg/mL; ED50 [24]: >16 mg/kg; Antibacterial activity (MIC) [25]: 0.5 µg/mL; Antibacterial activity (MIC) [26]: 0.25 µg/mL; Antibacterial activity (MIC) [27]: 8 µg/mL; Antibacterial activity (MIC) [28]: 0.5 µg/mL; Antibacterial activity (MIC) [29]: 0.25 µg/mL; Antibacterial activity (MIC) [30]: 4 µg/mL; Antibacterial activity (MIC) [31]: 0.5 µg/mL; Antibacterial activity (MIC) [32]: 0.12 µg/mL; Antibacterial activity (MIC) [33]: 1 µg/mL; Antibacterial activity (MIC) [34]: 8 µg/mL |
